Source: publication doi:10.1101/2024.08.19.608619, “Discovery of potent SARS-CoV-2 nsp3 macrodomain inhibitors uncovers lack of translation to cellular antiviral response” (bioRxiv, 2024)
Like-named read-outs stand apart in the source and are kept apart here.

Assays:
CYP = CYP inhibition; type: in vitro ADME; details: In vitro CYP inhibition pooled; for potency: potency class in words
Text: Supplement media-1.zip/CYP_Inhibition.csv, table | column: ic50; potency

5-HT3 (h) = molecular target: T1, 5-HT3 (h) (Homo sapiens, UniProt P46098); test: In vitro CEREP profiling, 5-HT3 (h) (antagonist radioligand); type: binding; details: test compound concentration 10 uM
T1 construct: purchased Eurofins Cerep (SafetyScreen44), recognised from the panel format
T1 sequence (P46098 24-478): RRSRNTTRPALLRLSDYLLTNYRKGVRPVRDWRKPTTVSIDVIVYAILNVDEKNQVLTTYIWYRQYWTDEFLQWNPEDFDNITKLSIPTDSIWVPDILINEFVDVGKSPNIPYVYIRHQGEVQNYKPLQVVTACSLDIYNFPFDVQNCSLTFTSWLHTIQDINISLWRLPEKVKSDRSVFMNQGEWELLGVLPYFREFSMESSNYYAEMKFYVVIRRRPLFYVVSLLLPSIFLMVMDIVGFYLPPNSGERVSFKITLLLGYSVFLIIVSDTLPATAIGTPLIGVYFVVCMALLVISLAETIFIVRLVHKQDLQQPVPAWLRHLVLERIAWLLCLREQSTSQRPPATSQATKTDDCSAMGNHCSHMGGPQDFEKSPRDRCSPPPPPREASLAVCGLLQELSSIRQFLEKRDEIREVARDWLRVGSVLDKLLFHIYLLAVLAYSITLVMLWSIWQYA
Text: Supplement media-1.zip/Safety_Panel_Profile.csv, table | column: perc_inhibition

ASK1(h) = molecular target: T2, ASK1(h) (Homo sapiens, UniProt Q99683); test: biochemical; set-up: In vitro kinase panel profiling, per cent remaining kinase activity at 10 uM; details: atp_concentration=200, read-out: % of control remaining
T2 construct: gene MAP3K5
T2 sequence (Q99683 1-1374): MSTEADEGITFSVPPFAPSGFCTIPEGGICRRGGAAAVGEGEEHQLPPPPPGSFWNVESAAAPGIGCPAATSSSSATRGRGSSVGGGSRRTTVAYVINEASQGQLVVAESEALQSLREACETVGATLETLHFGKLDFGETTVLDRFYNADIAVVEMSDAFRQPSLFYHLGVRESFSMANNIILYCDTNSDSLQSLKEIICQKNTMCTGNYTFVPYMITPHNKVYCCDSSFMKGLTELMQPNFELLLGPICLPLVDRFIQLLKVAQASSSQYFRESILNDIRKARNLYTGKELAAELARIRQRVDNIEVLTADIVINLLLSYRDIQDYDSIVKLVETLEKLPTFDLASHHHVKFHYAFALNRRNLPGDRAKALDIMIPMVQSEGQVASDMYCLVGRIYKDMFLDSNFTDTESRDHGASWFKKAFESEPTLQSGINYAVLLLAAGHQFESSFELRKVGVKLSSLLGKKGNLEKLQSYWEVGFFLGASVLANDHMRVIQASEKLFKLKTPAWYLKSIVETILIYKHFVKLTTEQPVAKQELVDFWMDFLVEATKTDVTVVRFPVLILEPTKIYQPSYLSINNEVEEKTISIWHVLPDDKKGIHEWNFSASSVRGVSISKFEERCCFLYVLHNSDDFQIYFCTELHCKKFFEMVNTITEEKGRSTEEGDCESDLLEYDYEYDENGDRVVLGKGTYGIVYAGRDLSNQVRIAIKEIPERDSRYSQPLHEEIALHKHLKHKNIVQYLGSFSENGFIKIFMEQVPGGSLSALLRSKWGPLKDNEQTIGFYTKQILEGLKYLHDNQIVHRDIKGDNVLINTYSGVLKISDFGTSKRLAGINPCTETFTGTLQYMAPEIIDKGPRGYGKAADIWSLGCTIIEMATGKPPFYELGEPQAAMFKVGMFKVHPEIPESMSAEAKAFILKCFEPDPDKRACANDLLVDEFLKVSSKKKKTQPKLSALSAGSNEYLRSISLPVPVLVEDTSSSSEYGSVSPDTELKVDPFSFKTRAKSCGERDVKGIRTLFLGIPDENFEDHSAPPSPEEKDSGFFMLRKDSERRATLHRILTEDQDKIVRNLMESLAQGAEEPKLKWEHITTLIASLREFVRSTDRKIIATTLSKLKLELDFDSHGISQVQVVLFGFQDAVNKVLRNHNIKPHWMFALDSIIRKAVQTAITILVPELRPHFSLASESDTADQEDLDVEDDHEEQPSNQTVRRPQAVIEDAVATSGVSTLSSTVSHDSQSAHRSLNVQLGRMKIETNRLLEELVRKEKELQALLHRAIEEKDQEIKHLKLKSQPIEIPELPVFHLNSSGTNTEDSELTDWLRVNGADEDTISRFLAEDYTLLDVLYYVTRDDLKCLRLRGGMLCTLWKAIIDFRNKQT
Text: (§1) We derisk potential for off-target activity by profiling the compound in a CEREP panel, a standard secondary pharmacology assessment, as well as a kinase panel to derisk a potential hinge-binding motif in our leads, and a PARP panel to derisk activity against human […]. Reassuringly, the compounds are selective, with the only off-targets being moderate human CHRM2 and KOR receptors activity associated with ASAP-0011198.

DRAK1(h) = molecular target: T3, DRAK1(h) (Homo sapiens, UniProt Q9UEE5); test: biochemical; set-up: In vitro kinase panel profiling, per cent remaining kinase activity at 10 uM; details: atp_concentration=10, read-out: % of control remaining
T3 construct: gene STK17A
T3 sequence (Q9UEE5 1-414): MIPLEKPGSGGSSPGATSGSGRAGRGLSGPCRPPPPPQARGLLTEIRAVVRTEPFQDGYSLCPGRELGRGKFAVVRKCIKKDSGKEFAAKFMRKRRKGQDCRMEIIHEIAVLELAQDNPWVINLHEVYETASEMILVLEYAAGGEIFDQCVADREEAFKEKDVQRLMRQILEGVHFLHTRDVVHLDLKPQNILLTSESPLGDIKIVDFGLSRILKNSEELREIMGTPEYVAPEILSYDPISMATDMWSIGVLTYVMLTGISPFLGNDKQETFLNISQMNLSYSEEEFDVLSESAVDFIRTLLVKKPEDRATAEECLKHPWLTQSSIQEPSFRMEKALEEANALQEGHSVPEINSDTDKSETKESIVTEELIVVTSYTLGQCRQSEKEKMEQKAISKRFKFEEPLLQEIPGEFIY
Text: as §1

PKCθ(h) = molecular target: T4, PKCθ(h) (Homo sapiens, UniProt Q04759); test: biochemical; set-up: In vitro kinase panel profiling, per cent remaining kinase activity at 10 uM; details: atp_concentration=15, read-out: % of control remaining
T4 construct: gene PRKCQ
Text: as §1

T4 sequence (Q04759 whole entry): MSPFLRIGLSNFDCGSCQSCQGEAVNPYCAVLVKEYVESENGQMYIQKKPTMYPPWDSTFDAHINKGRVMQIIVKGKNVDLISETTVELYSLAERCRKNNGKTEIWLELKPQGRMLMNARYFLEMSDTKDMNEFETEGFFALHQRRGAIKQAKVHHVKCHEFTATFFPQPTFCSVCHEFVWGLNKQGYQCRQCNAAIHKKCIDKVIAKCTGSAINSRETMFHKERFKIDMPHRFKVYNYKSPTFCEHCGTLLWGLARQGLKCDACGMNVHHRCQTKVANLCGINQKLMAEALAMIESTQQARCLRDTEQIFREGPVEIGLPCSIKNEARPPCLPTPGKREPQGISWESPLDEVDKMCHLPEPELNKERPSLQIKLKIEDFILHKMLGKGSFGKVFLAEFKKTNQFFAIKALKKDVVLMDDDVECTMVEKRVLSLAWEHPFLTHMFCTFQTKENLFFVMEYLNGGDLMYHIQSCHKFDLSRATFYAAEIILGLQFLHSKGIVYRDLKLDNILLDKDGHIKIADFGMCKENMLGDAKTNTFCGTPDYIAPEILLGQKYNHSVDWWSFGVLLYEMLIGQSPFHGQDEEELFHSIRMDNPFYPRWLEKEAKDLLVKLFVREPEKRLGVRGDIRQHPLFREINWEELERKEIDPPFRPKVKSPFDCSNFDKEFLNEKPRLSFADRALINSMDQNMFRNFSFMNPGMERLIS

Row | Compound | IC50 (CYP; isoform 1A2) [µM] | potency (CYP; isoform 1A2) | IC50 (CYP; isoform 2C9) [µM] | potency (CYP; isoform 2C9) | IC50 (CYP; isoform 2C19) [µM] | potency (CYP; isoform 2C19) | IC50 (CYP; isoform 2D6) [µM] | potency (CYP; isoform 2D6) | IC50 (CYP; isoform 3A4) [µM] | potency (CYP; isoform 3A4) | perc_inhibition (% inhibition of the binding of a ligand specific for each target) (5-HT3 (h)) [%] | also measured
1 | C[C@H](C(=O)O)[C@@H](NC(=O)c1ncnc2[nH]ccc12)c1ccc(Br)cc1 [ASAP-0014722] | > 50 | weak | 5.14 | moderate | > 50 | weak | > 50 | weak | > 50 | weak | 2 | remaining activity at 10 µM (ASK1(h); batch_name=ASAP-0014722-002): 102%; remaining activity at 10 µM (DRAK1(h); batch_name=ASAP-0014722-002): 98%; remaining activity at 10 µM (PKCθ(h); batch_name=ASAP-0014722-002): 100%
2 | CNCc1cc(-c2cc3c(N[C@@H](c4ccc5c(c4)S(=O)(=O)CCC5)C(C)C)ncnc3[nH]2)co1 [ASAP-0011176] | 49.3 | weak | 5.25 | moderate | 22.6 | weak | 9.03 | moderate | 1.81 | moderate-potent | 0 | remaining activity at 10 µM (DRAK1(h); batch_name=ASAP-0011176-002): 86%; remaining activity at 10 µM (PKCθ(h); batch_name=ASAP-0011176-002): 106%
3 | CC(C)[C@H](Nc1ncnc2[nH]ccc12)c1ccc2c(c1)S(=O)(=O)CCC2 [ASAP-0008674] | > 50 | weak | 18.2 | weak | 15 | weak | > 50 | weak | 3.2 | moderate | 8 | remaining activity at 10 µM (ASK1(h); batch_name=ASAP-0008674-002): 105%; remaining activity at 10 µM (DRAK1(h); batch_name=ASAP-0008674-002): 117%; remaining activity at 10 µM (PKCθ(h); batch_name=ASAP-0008674-002): 88%
4 | CC(C)[C@H](Nc1ncnc2[nH]c(-c3cnn(C)c3C#N)cc12)c1ccc2c(n1)OCCO2 [ASAP-0010715] | 35.2 | weak | 5.93 | moderate | 16.9 | weak | 27.7 | weak | 3.69 | moderate | 6 | remaining activity at 10 µM (ASK1(h); batch_name=ASAP-0010715-002): 106%; remaining activity at 10 µM (DRAK1(h); batch_name=ASAP-0010715-002): 105%
5 | CC(C)C(Nc1ncnc2[nH]ccc12)c1ccc2c(c1)S(=O)(=O)CCC2 (stereo not shown) [ASAP-0008327] |  |  |  |  |  |  |  |  |  |  |  | remaining activity at 10 µM (ASK1(h); batch_name=ASAP-0008327-001): 108%; remaining activity at 10 µM (DRAK1(h); batch_name=ASAP-0008327-001): 96%; remaining activity at 10 µM (PKCθ(h); batch_name=ASAP-0008327-001): 101%
6 | COc1ccc([C@@H](Cc2nnn[nH]2)NC(=O)c2ncnc3[nH]ccc23)cc1 [ASAP-0008340] |  |  |  |  |  |  |  |  |  |  |  | remaining activity at 10 µM (ASK1(h); batch_name=ASAP-0008340-001): 101%; remaining activity at 10 µM (DRAK1(h); batch_name=ASAP-0008340-001): 111%; remaining activity at 10 µM (PKCθ(h); batch_name=ASAP-0008340-001): 90%
7 | CC(C)[C@@H](Nc1ncnc2[nH]c(-c3cnn(C)c3C#N)cc12)c1ccc2c(n1)OCCO2 [ASAP-0008418] |  |  |  |  |  |  |  |  |  |  |  | remaining activity at 10 µM (DRAK1(h); batch_name=ASAP-0008418-001): 101%; remaining activity at 10 µM (PKCθ(h); batch_name=ASAP-0008418-001): 93%
8 | Cc1nn(C)cc1-c1cc2c(NC(c3ccc4c(c3)S(=O)(=O)CCC4)C(C)C)ncnc2[nH]1 (stereo not shown) [ASAP-0011446] |  |  |  |  |  |  |  |  |  |  |  | inhibition at 10 µM (5-HT3 (h); read-out: perc_inhibition, % inhibition of the binding of a ligand specific for each target): 6%; remaining activity at 10 µM (ASK1(h); batch_name=ASAP-0011446-002): 103%; remaining activity at 10 µM (DRAK1(h); batch_name=ASAP-0011446-002): 111%; remaining activity at 10 µM (PKCθ(h); batch_name=ASAP-0011446-002): 106%
9 | COc1ccc([C@H](Cc2nnn[nH]2)NC(=O)c2ncnc3[nH]ccc23)cc1 [ASAP-0015381] | > 50 | weak | 31.2 | weak | > 50 | weak | > 50 | weak | 25.4 | weak | 6 | remaining activity at 10 µM (ASK1(h); batch_name=ASAP-0015381-001): 103%; remaining activity at 10 µM (PKCθ(h); batch_name=ASAP-0015381-001): 91%
